Experimental data reported in patent publication US6476199B1, “Reagents for lysergic acid diethylamide immunoassay” (priority 1996, dated 2002).

Columns and labels:
anti-LSD antibody G651 [1] = assay: ELISA microtiter plate assay, plate coated with LSD-BSA label-conjugate 21, antiserum G651; details: conjugate 21 coating, 405 nm, FIG. 3
anti-LSD antibody G648 [2] = assay: ELISA microtiter plate assay, plate coated with LSD-BSA label-conjugate 21, antiserum G648; details: conjugate 21 coating, 405 nm, FIG. 3
anti-LSD antibody G648 [3] = assay: ELISA microtiter plate assay, plate coated with LSD-BSA label-conjugate 14, antiserum G648; assay type: binding, goats; details: for G648(OD): conjugate 14 coating, 405 nm, FIG. 1
Method: (§1) The novel reagents were tested in an ELISA immunoassay as described in Example 27. The N-indole derived LSD-BSA label-conjugate 14 containing the biphenyl linker was used to compete against known concentrations of LSD for binding to the anti-LSD antibodies, G648 and G651, raised against the LSD immunogen 8.

[4] = light; pH above 7 epimerization at C-8 to iso-LSD; prolonged light oxidation at C-9; cited from earlier work
anti-LSD antibody G651 [5] = assay: ELISA microtiter plate assay, plate coated with LSD-BSA label-conjugate 14, antiserum G651; assay type: binding, goats; details: for G651(OD): conjugate 14 coating, 405 nm
Method: as §1
FIG. 2 provides the curve generated from an ELISA microtiter plate assay, as described in Example 27, using nor-LSD as the standard.

LSD antibodies = details: prior-art antibodies, Van Vunakis 1971; cited from earlier work

**Q.** Which results are given for `CCN(CC)C(=O)[C@@H]1C=C2c3cccc4[nH]cc(c34)C[C@H]2N(C)C1` [LSD, D-lysergic acid diethyl amide]?
**A.** G651(OD) (anti-LSD antibody G651 [1]; 0.5 ng/mL free LSD): 0.5 OD; G651(OD) (anti-LSD antibody G651 [1]; 1 ng/mL free LSD): 0.33 OD; G651(OD) (anti-LSD antibody G651 [1]; 5 ng/mL free LSD): 0.19 OD; G648(OD) (anti-LSD antibody G648 [2]; 0.5 ng/mL free LSD): 0.52 OD; G648(OD) (anti-LSD antibody G648 [2]; 1 ng/mL free LSD): 0.37 OD; G648(OD) (anti-LSD antibody G648 [2]; 5 ng/mL free LSD): 0.17 OD; G648(OD) (anti-LSD antibody G648 [3]; 0.5 ng/mL free LSD): 0.8 OD; G648(OD) (anti-LSD antibody G648 [3]; 1 ng/mL free LSD): 0.33 OD; G648(OD) (anti-LSD antibody G648 [3]; 5 ng/mL free LSD): 0.25 OD; stability [4]: sensitive to light and alkaline pH; G651(OD) (anti-LSD antibody G651 [5]; 0.5 ng/mL free LSD, FIG. 1): 1.05 OD; G651(OD) (anti-LSD antibody G651 [5]; 1 ng/mL free LSD, FIG. 1): 0.75 OD; G651(OD) (anti-LSD antibody G651 [5]; 5 ng/mL free LSD, FIG. 1): 0.39 OD; G651(OD) (anti-LSD antibody G651 [5]; 5 ng/mL free drug, FIG. 2): 0.63 OD

**Q.** For `CCN(CC)C(=O)[C@@H]1C=C2c3cccc4[nH]cc(c34)C[C@H]2NC1` [Nor-LSD, 8β-9,10-didehydro-N,N-diethylergoline-8-carboxamide], which “binding of antibody G648 raised against immunogen 8” value (anti-LSD antibody G648 [3]; in words) is on record?
**A.** bind

**Q.** And the “G651(OD)” value (anti-LSD antibody G651 [5]; 1 ng/mL free drug, FIG. 2)?
**A.** 1.2 OD

**Q.** And the “G651(OD)” value (anti-LSD antibody G651 [5]; 5 ng/mL free drug, FIG. 2)?
**A.** 0.88 OD

**Q.** What about the “binding of antibody G651 raised against immunogen 8” value (anti-LSD antibody G651 [5]; in words) of the same molecule?
**A.** bind

**Q.** With `C[C@@H](CO)NC(=O)[C@@H]1C=C2c3cccc4[nH]cc(c34)C[C@H]2N(C)C1` [ergonovine] as the molecule, how does the “competition for binding to the LSD antibodies (cross-reactivity)” value (“competition for binding” for short) (LSD antibodies) read?
**A.** compete for binding

**Q.** For `CC(C)C[C@H]1C(=O)N2CCC[C@H]2[C@]2(O)O[C@@](C)(NC(=O)[C@@H]3C=C4c5cccc6[nH]cc(c56)C[C@H]4N(C)C3)C(=O)N12` [ergosine], which “competition for binding” value (LSD antibodies) is on record?
**A.** compete for binding

**Q.** With `CN1C[C@H](C(=O)N[C@]2(C)O[C@@]3(O)[C@@H]4CCCN4C(=O)[C@H](Cc4ccccc4)N3C2=O)C=C2c3cccc4[nH]cc(c34)C[C@H]21` [ergotamine] as the molecule, how does the “competition for binding” value (LSD antibodies) read?
**A.** compete for binding

**Q.** Which “competition for binding” value (LSD antibodies) does the source give for `CC[C@@H](CO)NC(=O)[C@@H]1C=C2c3cccc4c3c(cn4C)C[C@H]2N(C)C1` [methysergide] here?
**A.** compete for binding
